Source: ChEMBL document CHEMBL2440091, “The enzyme 3-hydroxykynurenine transaminase as potential target for 1,2,4-oxadiazoles with larvicide activity against the dengue vector Aedes aegypti” (2013)
Converted amounts (≈) assume the structure as drawn. The source made the active and inactive calls. No cut-off for these calls is given here.

Assays:
Aedes aegypti [1] = test: Larvicidal activity against fourth instar larvae of Aedes aegypti assessed as mortality after 48 hrs; format: functional
Aedes aegypti [2] = test: Larvicidal activity against fourth instar larvae of Aedes aegypti assessed as induction of alterations in pigmentation pattern at 100 ppm after 24 hrs by microscopic analysis; format: functional, organism-based

| Compound | LC50 (Aedes aegypti [1]) [µg/mL] | Activity (Aedes aegypti [2]) |
| --- | --- | --- |
| O=C(O)CCCc1nc(-c2ccc(Cl)cc2)no1 | 34.9 (≈ 131 µM) |  |
| O=C(O)Cc1nc(-c2ccccc2)no1 | > 100 |  |
| COC(=O)CCc1nc(-c2ccccc2)no1 | 30.6 (≈ 132 µM) |  |
| COC(=O)CCCc1nc(-c2ccccc2)no1 | 59.9 (≈ 243 µM) |  |
| O=C(O)Cc1nc(-c2ccc(Cl)cc2)no1 | 49.3 (≈ 207 µM) |  |
| COC(=O)CCCc1nc(-c2ccc(Cl)c(Cl)c2)no1 | 6.8 (≈ 21.6 µM) |  |
| O=C(O)CCCc1nc(-c2ccccc2)no1 | 92.7 (≈ 399 µM) |  |
| O=C(O)CCCc1nc(-c2ccc(Br)cc2)no1 | 10.6 (≈ 34.1 µM) |  |
| O=C(O)CCc1nc(-c2ccc([N+](=O)[O-])cc2)no1 | 50.5 (≈ 192 µM) |  |
| Cc1ccc(-c2noc(CCC(=O)O)n2)cc1 | 65.8 (≈ 283 µM) |  |
| O=C(O)CCCc1nc(-c2ccc3c(c2)OCO3)no1 | 72.9 (≈ 264 µM) |  |
| COC(=O)CCc1cc(-c2ccccc2)no1 | 13.2 (≈ 57.1 µM) | Active |
| COc1ccc(-c2noc(CCCC(=O)O)n2)cc1 | > 100 |  |
| O=C(O)CCc1nc(-c2ccc(Cl)cc2)no1 | 28.1 (≈ 111 µM) |  |
| CC(=O)CCc1nc(-c2ccccc2)no1 | > 100 |  |
| O=C(O)Cc1nc(-c2ccc(Br)cc2)no1 | 67.9 (≈ 240 µM) |  |
| O=C(O)CCc1cc(-c2ccccc2)no1 | 82.8 (≈ 381 µM) | Active |
| Cc1cccc(-c2noc(CCCC(=O)O)n2)c1 | 75.9 (≈ 308 µM) |  |
| OCCCc1cc(-c2ccccc2)no1 | > 100 |  |
| O=C(O)CCCc1nc(-c2ccc(I)cc2)no1 | 16.2 (≈ 45.2 µM) |  |
| Cc1ccc(-c2noc(CC(=O)O)n2)cc1 | 92.3 (≈ 423 µM) |  |
| Cc1cccc(-c2noc(CCC(=O)O)n2)c1 | 63.8 (≈ 275 µM) |  |
| O=C(O)CCc1nc(-c2ccc(F)cc2)no1 | 81.2 (≈ 344 µM) |  |
| O=C(O)CCc1nc(-c2ccccc2)no1 | 98.6 (≈ 452 µM) |  |
| COc1ccc(-c2noc(CCC(=O)O)n2)cc1 | 71.5 (≈ 288 µM) |  |
| Cc1ccccc1-c1noc(CCC(=O)O)n1 | 70.9 (≈ 305 µM) |  |
| O=C(O)CCc1nc(-c2ccc(Br)cc2)no1 | 15.2 (≈ 51.2 µM) | Active |
